Primed or numbered codes have the meaning given here. Ac′ = acetamide linker; CoA = coenzyme A
Target: T1, Naa80 (Homo sapiens, UniProt Q93015)
T1 construct: The PCR product containing the CDS was inserted into the TOPO TA vector; made in house; host or cells: E. coli BL21 Star (DE3)
T1 sequence (Q93015 1-308 isoform Q93015-2): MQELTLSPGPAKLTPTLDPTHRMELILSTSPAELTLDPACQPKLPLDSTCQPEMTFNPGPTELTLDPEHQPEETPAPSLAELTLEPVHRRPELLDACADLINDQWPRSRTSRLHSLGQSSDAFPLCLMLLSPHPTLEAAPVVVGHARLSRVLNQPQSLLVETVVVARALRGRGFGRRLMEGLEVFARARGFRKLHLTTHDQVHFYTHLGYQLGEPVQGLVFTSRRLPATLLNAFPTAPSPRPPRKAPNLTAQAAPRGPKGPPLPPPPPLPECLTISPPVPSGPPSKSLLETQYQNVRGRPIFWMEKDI
Test: Nt-acetylation inhibitor assay for Naa80
Type: biochemical
Description: FIG. 10: (A) IC50 values for inhibitors measured in an Nt-acetylation inhibitor assay for Naa80. (B) Ki-values for CoA-Ac-DDDI-NH2 (SEQ ID NO: 6) for different human NATs measured in an Nt-acetylation inhibitor assay. All reactions were performed at least three times and in triplicate; errors bars represent standard deviation of each measurement.
The IC50 values for these compounds were tested as described in Foyn H, et al. (2013) “Design, Synthesis, and Kinetic Characterization of Protein N-Terminal Acetyltransferase Inhibitors”. ACS Chem Biol 8:1121-1127; and Foyn H, et al. (2017) “DTNB-Based quantification of in vitro enzymatic N-terminal acetyltransferase activity”, Methods Mol. Biol. 1574:9-15. Briefly, a colorimetric acetylation assay, 5,5′-dithiobis-(2-nitrobenzoic acid) (DTNB) assay was used to measure the catalytic activity of NATs after incubation with NAT inhibitors. In the DTNB assay, thiols present in the enzymatic product, CoA, cleaves DTNB and produces 2-nitro-5-thiobenzoate (NTB-), which absorbs light with a wavelength of 412 nm. NTB- forms in a 1:1 molar ratio to the thiol groups present in the sample. Therefore, NTB- was quantified by measuring the absorbance at 412 nm and indirectly measures peptide Nt-acetylation. […] After 30 min-60 min incubation at 37° C., the enzyme activity was quenched with quenching buffer (3.2 M guanidinium-HCl, 100 mM sodium phosphate dibasic pH 6.8). Triplicates were run for all positive samples, while negative controls were duplicated. As a negative control, reactions without enzyme were incubated at 37° C. before the reaction was quenched and added enzyme. In order to measure CoA production, 2 mM DTNB (dissolved in 100 mM sodium phosphate dibasic pH 6.8 and 10 mM EDTA) was added to the quenched reaction and the absorbance at 412 nm was measured with a spectrophotometer (Epoc). Background absorbance (determined in negative controls) was subtracted from the absorbance determined in each individual reaction. Thiophenolate production was quantified assuming ε=13.7×103 M−1 cm−1. For NatA and NatB enzyme complex inhibition, immunoprecipitation was performed using Naa15 ab (custom made, Arnesen T, Anderson D, Baldersheim C, Lanotte M, Varhaug J E, Lillehaug J R. (2005) Identification and characterization of the human ARD1-NATH protein acetyltransferase complex. Biochemical J 386(Pt 3):433-43.) or Naa20 ab (Nat5, abnova) respectively and protein A/G magnetic agarose beads (Millipore). A similar Nt-acetylation reaction was performed as previously described and the enzymatic activity was quenched with a final concentration of 1% TFA and analyzed by HPLC (Evjenth R, Van Damme P, Gevaert K, Arnesen T (2013) HPLC-based Quantification of in vitro N-terminal Acetylation. Methods Mol Biol 981:95-102.).
We then pursued Naa80 bisubstrate analogue inhibitors based on the results of the substrate screening and the sequences of the cellular substrates processed β- and γ-actin. We synthesized bisubstrate conjugates of Coenzyme A coupled to the tetrapeptides MDEL-NH2 (SEQ ID NO: 8), DDDI-NH2 (SEQ ID NO: 6), EEEI-NH2 (SEQ
ID NO: 7), and MLGT-NH2 (SEQ ID NO: 52) via an acetamide (Ac) linker.
The following additional Naa80 bisubstrate analogue inhibitors were produced and tested as described above: […]

inhibition of Naa80 (at the highest concentration tested of 1000 μM) | Compound | IC50 (Naa80) [nM]
 | CC(C)C[C@H](NC(=O)[C@H](CCC(=O)O)NC(=O)[C@H](CCC(=O)O)NC(=O)[C@H](CCC(=O)O)NC(=O)CSCCNC(=O)CCNC(=O)C(O)C(C)(C)COP(=O)(O)OP(=O)(O)OCC1OC(n2cnc3c(N)ncnc32)C(O)C1OP(=O)(O)O)C(N)=O (some centres unmarked) [EEEL] | 1160
did not show detectable inhibition | CoA-Ac-MLGT-NH2 ({CoA-Ac′}-MLGT-NH2) | 
